In the supplement of paper PMC11061612:

Experiments:
Assay in all cases: combination Emax (second highest fraction inhibited in the dose matrix, 72 h); higher = more inhibition; extreme values may be limits of the assay
[1] = test system: 5637 (Bladder Carcinoma)
How it was run: (§1)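 Cell lines in DMEM/F12 or RPMI with 10% FBS were plated in 1536-well plates, held 24 hours at 37°C, 5% CO2, then given two-drug dose matrices for 72 hours (DMSO typically 0.2%). Viability was read by CellTiter-Glo 2.0 luminescence and scaled as inhibition from 0 (vehicle wells) to 1 (blank wells). Combination Emax is the second-highest inhibition in the matrix; Bliss excess is observed combination effect minus expected EA + EB − EA·EB, EA and EB being single-agent effects.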

[2] = test system: A101D (Melanoma)
How it was run: as §1

[3] = test system: A204 (Rhabdomyosarcoma)
How it was run: as §1

[4] = test system: A253 (Head and Neck Carcinoma)
How it was run: as §1

[5] = test system: AU565 (Breast Carcinoma)
How it was run: as §1

[6] = test system: CAL-27 (Oral Cavity Carcinoma)
How it was run: as §1

[7] = test system: EPLC-272H (Other Solid Carcinomas)
How it was run: as §1

[8] = test system: ESO26 (Esophageal Adenocarcinoma)
How it was run: as §1

[9] = test system: EW-7 (Ewing's Sarcoma)
How it was run: as §1

[10] = test system: HT55 (Colorectal Carcinoma)
How it was run: as §1

[11] = test system: JHU-022 (Oral Cavity Carcinoma)
How it was run: as §1

[12] = test system: KYSE-220 (Esophageal Squamous Cell Carcinoma)
How it was run: as §1

[13] = test system: NCI-H1703 (Squamous Cell Lung Carcinoma)
How it was run: as §1

[14] = test system: NCI-H2087 (Lung Adenocarcinoma)
How it was run: as §1

[15] = test system: NCI-H2228 (Lung Adenocarcinoma)
How it was run: as §1

[16] = test system: NCI-H716 (Colorectal Carcinoma)
How it was run: as §1

[17] = test system: OACp4C (Esophageal Adenocarcinoma)
How it was run: as §1

[18] = test system: PEO1 (Ovarian Carcinoma)
How it was run: as §1

[19] = test system: UACC-812 (Breast Carcinoma)
How it was run: as §1

[20] = test system: huH-1 (Hepatocellular Carcinoma)
How it was run: as §1

Row | Structure (SMILES) | combination Emax [1] | combination Emax [2] | combination Emax [3] | combination Emax [4] | combination Emax [5] | combination Emax [6] | combination Emax [7] | combination Emax [8] | combination Emax [9] | combination Emax [10] | combination Emax [11] | combination Emax [12] | combination Emax [13] | combination Emax [14] | combination Emax [15] | combination Emax [16] | combination Emax [17] | combination Emax [18] | combination Emax [19] | combination Emax [20]
1 | COc1cccc(OCCCN)c1-c1cc(Nc2cnc(C#N)cn2)n[nH]1 [Prexasertib] + C=CCn1c(=O)c2cnc(Nc3ccc(N4CCN(C)CC4)cc3)nc2n1-c1cccc(C(C)(C)O)n1 [AZD1775] (first compound max 1 µM, partner max 1 µM) | 0.924 | 0.832 | 0.648 | 0.93 | 0.891 | 0.777 | 0.914 | 0.649 | 0.962 | 0.67 | 0.624 | 0.973 | 0.985 | 0.804 | 0.719 | 0.664 | 0.835 | 0.478 | 0.662 | 0.811
2 | COc1cccc(OCCCN)c1-c1cc(Nc2cnc(C#N)cn2)n[nH]1 [Prexasertib] + CCc1c2c(nc3ccc(O)cc13)-c1cc3c(c(=O)n1C2)COC(=O)[C@]3(O)CC [SN-38] (first compound max 1 µM, 7x7, partner max 0.3 µM) | 1 | 0.899 | 0.678 | 0.966 | 0.949 | 0.948 | 0.922 | 0.76 | 0.96 | 0.863 | 0.756 | 0.96 | 0.971 | 0.918 | 0.821 | 0.726 | 0.918 | 0.71 | 0.604 | 0.767
3 | COc1cccc(OCCCN)c1-c1cc(Nc2cnc(C#N)cn2)n[nH]1 [Prexasertib] + CN(C)CCCOc1ccc(-c2ccc3ncc4c(c3c2)n(C2CCOCC2)c(=O)n4C)cn1 [AZD0156] (first compound max 1 µM, 7x7, partner max 1 µM) | 0.849 | 0.737 | 0.633 | 0.774 | 0.714 | 0.421 | 0.924 | 0.571 | 0.981 | 0.614 | 0.659 | 0.925 | 0.966 | 0.761 | 0.664 | 0.662 | 0.672 | 0.388 | 0.537 | 0.756
4 | COc1cccc(OCCCN)c1-c1cc(Nc2cnc(C#N)cn2)n[nH]1 [Prexasertib] + C[C@@H]1COCCN1C2=NC(=NC(=C2)C3(CC3)[S@](=N)(=O)C)C4=C5C=CNC5=NC=C4 [AZD6738] (first compound max 1 µM, 7x7, partner max 10 µM) | 0.845 | 0.773 | 0.534 | 0.846 | 0.633 | 0.504 | 0.942 | 0.541 | 0.971 | 0.65 | 0.627 | 0.939 | 0.97 | 0.797 | 0.643 | 0.616 | 0.737 | 0.489 | 0.542 | 0.762
5 | COc1cccc(OCCCN)c1-c1cc(Nc2cnc(C#N)cn2)n[nH]1 [Prexasertib] + Cc1cc2ncnn2cc1Nc1ncc2c(n1)n(C1CCOCC1)c(=O)n2C [AZD7648] (first compound max 1 µM, 7x7, partner max 10 µM) | 0.845 | 0.762 | 0.528 | 0.782 | 0.745 | 0.426 | 0.918 | 0.504 | 0.971 | 0.65 | 0.634 | 0.935 | 0.951 | 0.801 | 0.682 | 0.662 | 0.649 | 0.415 | 0.546 | 0.762
6 | COc1cccc(OCCCN)c1-c1cc(Nc2cnc(C#N)cn2)n[nH]1 [Prexasertib] + O=C(c1cc(Cc2n[nH]c(=O)c3ccccc23)ccc1F)N1CCN(C(=O)C2CC2)CC1 [Olaparib] (first compound max 1 µM, 7x7, partner max 10 µM) | 0.852 | 0.788 | 0.584 | 0.794 | 0.735 | 0.78 | 0.894 | 0.56 | 0.955 | 0.65 | 0.637 | 0.947 | 0.978 | 0.784 | 0.726 | 0.616 | 0.642 | 0.388 | 0.558 | 0.778
7 | CCc1c2c(nc3ccc(O)cc13)-c1cc3c(c(=O)n1C2)COC(=O)[C@]3(O)CC [SN-38] + CN(C)CCCOc1ccc(-c2ccc3ncc4c(c3c2)n(C2CCOCC2)c(=O)n4C)cn1 [AZD0156] (first compound max 0.3 µM, 7x7, partner max 1 µM) | 0.802 | 0.674 | 0.59 | 0.881 | 0.8 | 0.905 | 0.755 | 0.655 | 0.975 | 0.449 | 0.842 | 0.947 | 0.875 | 0.921 | 0.716 | 0.202 | 0.714 | 0.674 | 0.608 | 0.762
8 | Cn1cnc2c(F)c(Nc3ccc(Br)cc3Cl)c(C(=O)NOCCO)cc21 [Selumetinib] + C=CCn1c(=O)c2cnc(Nc3ccc(N4CCN(C)CC4)cc3)nc2n1-c1cccc(C(C)(C)O)n1 [AZD1775] (first compound max 10 µM, partner max 1 µM) | 0.85 | 0.64 | 0.276 | 0.336 | 0.644 | 0.578 | 0.857 | 0.678 | 0.806 | 0.792 | 0.529 | 0.664 | 0.944 | 0.559 | 0.453 | 0.428 | 0.909 | 0.335 | 0.138 | 0.48
9 | Cn1cnc2c(F)c(Nc3ccc(Br)cc3Cl)c(C(=O)NOCCO)cc21 [Selumetinib] + CC(C)n1c(=O)n(C)c2cnc3cc(F)c(-c4ccc(OCCCN5CCCCC5)nc4)cc3c21 [AZD1390] (first compound max 10 µM, 7x7, partner max 0.3 µM) | 0.236 | 0.528 | 0.149 | 0.18 | 0.146 | 0.611 | 0.651 | 0.115 | 0.15 | 0.669 | 0.497 | 0.405 | 0.122 | 0.449 | 0.203 | 0.452 | 0.43 | 0.266 | 0.129 | 0.107
10 | Cn1cnc2c(F)c(Nc3ccc(Br)cc3Cl)c(C(=O)NOCCO)cc21 [Selumetinib] + CCN(CCO)CCCOc1ccc2c(Nc3cc(CC(=O)Nc4cccc(F)c4)[nH]n3)ncnc2c1 [AZD2811] (first compound max 10 µM, 7x7, partner max 1 µM) | 0.81 | 0.596 | 0.286 | 0.348 | 0.2 | 0.611 | 0.634 | 0.212 | 0.509 | 0.741 | 0.54 | 0.52 | 0.472 | 0.445 | 0.296 | 0.428 | 0.838 | 0.29 | 0.166 | 0.307
11 | Cn1cnc2c(F)c(Nc3ccc(Br)cc3Cl)c(C(=O)NOCCO)cc21 [Selumetinib] + C[C@@H]1COCCN1C2=NC(=NC(=C2)C3(CC3)[S@](=N)(=O)C)C4=C5C=CNC5=NC=C4 [AZD6738] (first compound max 10 µM, 7x7, partner max 10 µM) | 0.633 | 0.76 | 0.388 | 0.636 | 0.315 | 0.63 | 0.902 | 0.486 | 0.951 | 0.735 | 0.567 | 0.753 | 0.881 | 0.661 | 0.405 | 0.577 | 0.856 | 0.441 | 0.319 | 0.537
12 | CC(=O)Nc1cccc(-n2c(=O)n(C3CC3)c(=O)c3c(Nc4ccc(I)cc4F)n(C)c(=O)c(C)c32)c1 [Trametinib] + Cc1nc(-c2cn3c(n2)-c2ccc(-c4cnn(C(C)(C)C(N)=O)c4)cc2OCC3)n(C(C)C)n1 [Taselisib] (first compound max 1 µM, 7x7, partner max 10 µM) | 0.989 | 0.923 | 0.816 | 0.954 | 0.604 | 0.946 | 1 | 0.746 | 1 | 0.859 | 0.903 | 0.958 | 0.759 | 0.639 | 0.914 | 0.977 | 1 | 0.825 | 0.461 | 0.688
13 | CC1(C)CCC(CN2CCN(c3ccc(C(=O)NS(=O)(=O)c4ccc(NCC5CCOCC5)c([N+](=O)[O-])c4)c(Oc4cnc5[nH]ccc5c4)c3)CC2)=C(c2ccc(Cl)cc2)C1 [Venetoclax] + C1CN(CCC1(C(=O)N[C@@H](CCO)C2=CC=C(C=C2)Cl)N)C3=NC=NC4=C3C=CN4 [Capivasertib] (first compound max 1 µM, 7x7, partner max 3 µM) | 0.168 | 0.283 | 0.335 | 0.463 | 0.46 | 0.261 | 0.562 | 0.311 | 0.962 | 0.363 | 0.359 | 0.223 | 0.384 | 0.123 | 0.405 | 0.287 | 0.634 | 0.19 | 0.238 | 0.2
